Assays:
Test in all cases: KINOMEscan
Type in all cases: binding
Settings in all cases: read-out: % Ctrl
[1] = molecular target: T1, YSK4 (Homo sapiens, UniProt Q56UN5)
T1 construct: purchased DiscoveRx KINOMEscan

[2] = molecular target: T2, TAK1 (Homo sapiens, UniProt O43318)
T2 construct: purchased DiscoveRx KINOMEscan

[3] = molecular target: T3, DLK (Homo sapiens, UniProt Q12852)
T3 construct: purchased DiscoveRx KINOMEscan

[4] = molecular target: T4, FAK (Homo sapiens, UniProt Q05397)
T4 construct: purchased DiscoveRx KINOMEscan

[5] = molecular target: T5, MLCK (Homo sapiens, UniProt Q32MK0)
T5 construct: purchased DiscoveRx KINOMEscan

[6] = molecular target: T6, EPHA2 (Homo sapiens, UniProt P29317)
T6 construct: purchased DiscoveRx KINOMEscan

[7] = molecular target: T7, YES (Homo sapiens, UniProt P07947)
T7 construct: purchased DiscoveRx KINOMEscan

[8] = molecular target: T8, DDR2 (Homo sapiens, UniProt Q16832)
T8 construct: purchased DiscoveRx KINOMEscan

[9] = molecular target: T9, ZAP70 (Homo sapiens, UniProt P43403)
T9 construct: purchased DiscoveRx KINOMEscan

[10] = molecular target: T10, EPHA7 (Homo sapiens, UniProt Q15375)
T10 construct: purchased DiscoveRx KINOMEscan

[11] = molecular target: T11, TNNI3K (Homo sapiens, UniProt Q59H18)
T11 construct: purchased DiscoveRx KINOMEscan

[12] = molecular target: T12, ACVR1 (Homo sapiens, UniProt Q04771)
T12 construct: purchased DiscoveRx KINOMEscan

[13] = molecular target: T13, JNK2 (Homo sapiens, UniProt P45984)
T13 construct: purchased DiscoveRx KINOMEscan

[14] = molecular target: T14, NEK9 (Homo sapiens, UniProt Q8TD19)
T14 construct: purchased DiscoveRx KINOMEscan

[15] = molecular target: T15, ABL1(Q252H)-nonP (Homo sapiens, UniProt P00519, Q252H)
T15 construct: purchased DiscoveRx KINOMEscan

[16] = molecular target: T16, PKAC-alpha (Homo sapiens, UniProt P17612)
T16 construct: purchased DiscoveRx KINOMEscan

[17] = molecular target: T17, CSF1R (Homo sapiens, UniProt P07333)
T17 construct: purchased DiscoveRx KINOMEscan

[18] = molecular target: T18, EPHA8 (Homo sapiens, UniProt P29322)
T18 construct: purchased DiscoveRx KINOMEscan

[19] = molecular target: T19, PDGFRB (Homo sapiens, UniProt P09619)
T19 construct: purchased DiscoveRx KINOMEscan

[20] = molecular target: T20, VPS34 (Homo sapiens, UniProt Q8NEB9)
T20 construct: purchased DiscoveRx KINOMEscan

[21] = molecular target: T21, DCAMKL3 (Homo sapiens, UniProt Q9C098)
T21 construct: purchased DiscoveRx KINOMEscan

[22] = molecular target: T22, MAP4K2 (Homo sapiens, UniProt Q12851)
T22 construct: purchased DiscoveRx KINOMEscan

[23] = molecular target: T23, PIK3CA(E545K) (Homo sapiens, UniProt P42336, E545K)
T23 construct: purchased DiscoveRx KINOMEscan

[24] = molecular target: T24, MYLK4 (Homo sapiens, UniProt Q86YV6)
T24 construct: purchased DiscoveRx KINOMEscan

[25] = molecular target: T25, DRAK2 (Homo sapiens, UniProt O94768)
T25 construct: purchased DiscoveRx KINOMEscan

[26] = molecular target: T26, ACVR2B (Homo sapiens, UniProt Q13705)
T26 construct: purchased DiscoveRx KINOMEscan

[27] = molecular target: T27, MLK1 (Homo sapiens, UniProt P80192)
T27 construct: purchased DiscoveRx KINOMEscan

[28] = molecular target: T28, ABL1(H396P)-nonP (Homo sapiens, UniProt P00519, H396P)
T28 construct: purchased DiscoveRx KINOMEscan

[29] = molecular target: T29, PRKD1 (Homo sapiens, UniProt Q15139)
T29 construct: purchased DiscoveRx KINOMEscan

[30] = molecular target: T30, CDC2L2 (Homo sapiens, UniProt Q9UQ88)
T30 construct: purchased DiscoveRx KINOMEscan

[31] = molecular target: T31, ABL1(Q252H)-P (Homo sapiens, UniProt P00519, Q252H)
T31 construct: purchased DiscoveRx KINOMEscan

[32] = molecular target: T32, DAPK3 (Homo sapiens, UniProt O43293)
T32 construct: purchased DiscoveRx KINOMEscan

[33] = molecular target: T33, PKNB(M.tuberculosis) (Mycobacterium tuberculosis, UniProt P9WI81)
T33 construct: purchased DiscoveRx KINOMEscan

[34] = molecular target: T34, AURKA (Homo sapiens, UniProt O14965)
T34 construct: purchased DiscoveRx KINOMEscan

[35] = molecular target: T35, PLK3 (Homo sapiens, UniProt Q9H4B4)
T35 construct: purchased DiscoveRx KINOMEscan

[36] = molecular target: T36, PAK4 (Homo sapiens, UniProt O96013)
T36 construct: purchased DiscoveRx KINOMEscan

[37] = molecular target: T37, EPHA5 (Homo sapiens, UniProt P54756)
T37 construct: purchased DiscoveRx KINOMEscan

[38] = molecular target: T38, LATS1 (Homo sapiens, UniProt O95835)
T38 construct: purchased DiscoveRx KINOMEscan

[39] = molecular target: T39, MYO3B (Homo sapiens, UniProt Q8WXR4)
T39 construct: purchased DiscoveRx KINOMEscan

[40] = molecular target: T40, MEK6 (Homo sapiens, UniProt P52564)
T40 construct: purchased DiscoveRx KINOMEscan

[41] = molecular target: T41, GRK2 (Homo sapiens, UniProt P25098)
T41 construct: purchased DiscoveRx KINOMEscan

[42] = molecular target: T42, MET(M1250T) (Homo sapiens, UniProt P08581, M1250T)
T42 construct: purchased DiscoveRx KINOMEscan

[43] = molecular target: T43, BMPR1A (Homo sapiens, UniProt P36894)
T43 construct: purchased DiscoveRx KINOMEscan

[44] = molecular target: T44, ABL1(T315I)-nonP (Homo sapiens, UniProt P00519, T315I)
T44 construct: purchased DiscoveRx KINOMEscan

T20 sequence (Q8NEB9 whole entry): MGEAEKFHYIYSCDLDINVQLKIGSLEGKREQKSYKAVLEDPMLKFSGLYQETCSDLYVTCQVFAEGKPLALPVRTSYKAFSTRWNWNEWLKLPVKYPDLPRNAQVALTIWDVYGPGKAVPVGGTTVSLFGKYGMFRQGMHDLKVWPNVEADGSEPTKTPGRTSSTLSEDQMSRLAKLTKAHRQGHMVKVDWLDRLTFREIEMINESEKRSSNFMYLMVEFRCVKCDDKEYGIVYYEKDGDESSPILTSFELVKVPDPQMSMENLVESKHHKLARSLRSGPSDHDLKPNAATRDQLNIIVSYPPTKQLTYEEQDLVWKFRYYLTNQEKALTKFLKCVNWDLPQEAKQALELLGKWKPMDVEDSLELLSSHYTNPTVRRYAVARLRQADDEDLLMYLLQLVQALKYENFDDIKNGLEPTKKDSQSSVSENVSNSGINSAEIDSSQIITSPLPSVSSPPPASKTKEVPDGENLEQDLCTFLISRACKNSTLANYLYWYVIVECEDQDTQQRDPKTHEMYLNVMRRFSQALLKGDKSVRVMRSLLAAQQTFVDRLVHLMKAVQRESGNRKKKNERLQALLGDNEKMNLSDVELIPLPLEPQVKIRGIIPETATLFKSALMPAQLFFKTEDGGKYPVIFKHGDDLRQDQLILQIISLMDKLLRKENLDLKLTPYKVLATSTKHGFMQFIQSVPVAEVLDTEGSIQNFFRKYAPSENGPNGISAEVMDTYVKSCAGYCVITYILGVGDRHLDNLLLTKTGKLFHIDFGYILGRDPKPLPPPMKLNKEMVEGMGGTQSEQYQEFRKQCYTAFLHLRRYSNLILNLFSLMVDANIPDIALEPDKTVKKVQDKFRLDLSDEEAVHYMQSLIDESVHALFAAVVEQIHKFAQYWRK
T19 sequence (P09619 33-1106): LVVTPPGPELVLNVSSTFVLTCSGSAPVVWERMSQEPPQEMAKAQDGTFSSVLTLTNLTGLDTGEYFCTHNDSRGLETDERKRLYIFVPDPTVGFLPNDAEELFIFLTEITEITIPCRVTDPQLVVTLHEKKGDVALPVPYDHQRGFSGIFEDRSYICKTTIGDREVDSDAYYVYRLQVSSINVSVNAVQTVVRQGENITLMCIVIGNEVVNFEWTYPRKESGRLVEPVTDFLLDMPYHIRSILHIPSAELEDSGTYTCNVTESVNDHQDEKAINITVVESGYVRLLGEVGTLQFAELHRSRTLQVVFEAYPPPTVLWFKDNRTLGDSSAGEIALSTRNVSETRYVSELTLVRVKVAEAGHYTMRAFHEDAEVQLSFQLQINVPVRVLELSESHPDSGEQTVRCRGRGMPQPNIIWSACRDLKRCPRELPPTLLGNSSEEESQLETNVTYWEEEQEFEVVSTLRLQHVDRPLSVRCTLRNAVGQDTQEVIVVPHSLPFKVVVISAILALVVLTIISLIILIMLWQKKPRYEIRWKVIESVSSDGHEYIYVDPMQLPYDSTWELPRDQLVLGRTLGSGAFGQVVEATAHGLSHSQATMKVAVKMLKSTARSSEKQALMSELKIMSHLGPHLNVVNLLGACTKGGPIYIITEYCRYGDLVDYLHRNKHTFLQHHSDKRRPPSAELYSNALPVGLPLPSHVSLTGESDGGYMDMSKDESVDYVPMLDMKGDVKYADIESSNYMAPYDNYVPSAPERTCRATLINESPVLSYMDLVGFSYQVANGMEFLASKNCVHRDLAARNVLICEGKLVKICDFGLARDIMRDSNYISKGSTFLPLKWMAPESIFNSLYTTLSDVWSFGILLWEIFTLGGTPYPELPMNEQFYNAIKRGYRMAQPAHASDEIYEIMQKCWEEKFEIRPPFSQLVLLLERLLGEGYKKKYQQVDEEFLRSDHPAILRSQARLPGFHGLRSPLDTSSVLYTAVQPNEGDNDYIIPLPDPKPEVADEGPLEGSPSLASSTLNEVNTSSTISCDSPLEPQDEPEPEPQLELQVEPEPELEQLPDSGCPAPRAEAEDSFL
T27 sequence (P80192 whole entry): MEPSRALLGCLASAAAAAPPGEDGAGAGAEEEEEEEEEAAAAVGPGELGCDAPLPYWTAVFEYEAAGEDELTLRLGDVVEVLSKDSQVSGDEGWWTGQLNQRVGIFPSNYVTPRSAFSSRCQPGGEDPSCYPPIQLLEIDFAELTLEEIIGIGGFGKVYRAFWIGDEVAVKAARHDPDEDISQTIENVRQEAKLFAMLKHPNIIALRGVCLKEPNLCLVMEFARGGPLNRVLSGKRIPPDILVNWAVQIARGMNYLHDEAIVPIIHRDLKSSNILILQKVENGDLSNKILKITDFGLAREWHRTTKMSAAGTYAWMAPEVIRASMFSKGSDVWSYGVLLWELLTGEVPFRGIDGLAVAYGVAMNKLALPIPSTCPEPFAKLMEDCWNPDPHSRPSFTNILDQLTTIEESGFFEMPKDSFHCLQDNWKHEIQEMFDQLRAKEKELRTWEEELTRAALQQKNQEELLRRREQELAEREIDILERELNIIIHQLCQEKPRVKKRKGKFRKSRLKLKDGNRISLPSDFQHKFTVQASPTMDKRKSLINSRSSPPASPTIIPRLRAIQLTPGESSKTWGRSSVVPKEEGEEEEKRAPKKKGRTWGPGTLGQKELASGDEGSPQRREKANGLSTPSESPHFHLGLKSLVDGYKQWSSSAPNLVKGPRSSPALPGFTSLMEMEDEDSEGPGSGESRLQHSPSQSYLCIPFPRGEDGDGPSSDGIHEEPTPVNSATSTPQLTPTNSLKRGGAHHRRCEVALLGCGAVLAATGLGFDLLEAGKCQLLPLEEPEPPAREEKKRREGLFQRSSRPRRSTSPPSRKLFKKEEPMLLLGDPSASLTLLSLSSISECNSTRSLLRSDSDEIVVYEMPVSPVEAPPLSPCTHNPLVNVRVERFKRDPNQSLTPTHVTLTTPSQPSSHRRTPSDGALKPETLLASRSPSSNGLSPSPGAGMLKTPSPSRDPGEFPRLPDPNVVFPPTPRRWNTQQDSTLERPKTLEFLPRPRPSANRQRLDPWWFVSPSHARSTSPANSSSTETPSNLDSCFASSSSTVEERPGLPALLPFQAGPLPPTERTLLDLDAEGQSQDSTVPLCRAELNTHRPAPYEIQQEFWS
T22 sequence (Q12851 whole entry): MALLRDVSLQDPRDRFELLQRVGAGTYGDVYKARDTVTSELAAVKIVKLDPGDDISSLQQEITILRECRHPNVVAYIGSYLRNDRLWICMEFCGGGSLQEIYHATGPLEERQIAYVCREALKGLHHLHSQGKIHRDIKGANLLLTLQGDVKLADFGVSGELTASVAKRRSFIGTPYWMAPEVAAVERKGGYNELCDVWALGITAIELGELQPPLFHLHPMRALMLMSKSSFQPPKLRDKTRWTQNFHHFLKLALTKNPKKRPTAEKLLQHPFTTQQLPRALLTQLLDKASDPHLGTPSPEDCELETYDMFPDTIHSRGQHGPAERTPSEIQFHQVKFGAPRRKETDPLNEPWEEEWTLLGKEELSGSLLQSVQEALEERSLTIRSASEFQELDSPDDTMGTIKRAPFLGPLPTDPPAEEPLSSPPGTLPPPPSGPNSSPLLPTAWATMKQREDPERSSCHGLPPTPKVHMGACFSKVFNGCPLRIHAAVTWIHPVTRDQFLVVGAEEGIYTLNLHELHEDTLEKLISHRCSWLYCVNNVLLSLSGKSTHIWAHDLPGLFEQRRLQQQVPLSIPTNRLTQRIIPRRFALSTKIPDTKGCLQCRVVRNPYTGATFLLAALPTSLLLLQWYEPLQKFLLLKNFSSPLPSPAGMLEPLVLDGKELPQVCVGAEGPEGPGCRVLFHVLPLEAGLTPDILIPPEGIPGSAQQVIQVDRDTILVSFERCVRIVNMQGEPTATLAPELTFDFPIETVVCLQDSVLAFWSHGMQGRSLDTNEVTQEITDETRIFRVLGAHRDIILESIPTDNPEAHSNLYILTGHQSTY
T7 sequence (P07947 whole entry): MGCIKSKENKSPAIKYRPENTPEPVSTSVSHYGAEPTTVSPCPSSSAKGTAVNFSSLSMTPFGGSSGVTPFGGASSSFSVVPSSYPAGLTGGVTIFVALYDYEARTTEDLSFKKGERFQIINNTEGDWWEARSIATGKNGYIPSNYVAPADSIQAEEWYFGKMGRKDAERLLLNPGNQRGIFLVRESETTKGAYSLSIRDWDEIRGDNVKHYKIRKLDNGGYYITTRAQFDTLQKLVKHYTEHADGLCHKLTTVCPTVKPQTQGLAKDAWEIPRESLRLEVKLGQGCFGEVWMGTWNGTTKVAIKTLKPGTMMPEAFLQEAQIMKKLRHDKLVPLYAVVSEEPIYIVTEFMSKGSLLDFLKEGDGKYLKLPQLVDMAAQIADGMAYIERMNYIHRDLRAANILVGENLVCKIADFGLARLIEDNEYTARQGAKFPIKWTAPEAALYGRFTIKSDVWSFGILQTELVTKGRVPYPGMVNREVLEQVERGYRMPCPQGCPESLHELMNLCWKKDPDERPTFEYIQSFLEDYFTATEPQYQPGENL
T13 sequence (P45984 whole entry): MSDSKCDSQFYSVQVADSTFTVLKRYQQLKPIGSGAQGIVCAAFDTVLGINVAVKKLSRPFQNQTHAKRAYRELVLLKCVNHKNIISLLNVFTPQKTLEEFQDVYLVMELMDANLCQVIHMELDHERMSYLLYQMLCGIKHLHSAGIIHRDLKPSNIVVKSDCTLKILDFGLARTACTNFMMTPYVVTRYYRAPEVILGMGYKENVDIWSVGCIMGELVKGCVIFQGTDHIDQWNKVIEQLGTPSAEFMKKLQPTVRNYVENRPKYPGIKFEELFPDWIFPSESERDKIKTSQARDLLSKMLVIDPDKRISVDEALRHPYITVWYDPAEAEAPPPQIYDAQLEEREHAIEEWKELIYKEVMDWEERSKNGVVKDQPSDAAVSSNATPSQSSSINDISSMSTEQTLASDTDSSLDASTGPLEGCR

## CN1CCC(CNc2ccc3ncc(C(=O)Nc4cccc(OC(F)(F)F)c4)n3n2)CC1 [Cpd 2]
[1]
  remaining binding at 1 µM: 71%
[2]
  remaining binding at 1 µM: 70%
[3]
  remaining binding at 1 µM: 100%
[4]
  remaining binding at 1 µM: 100%
[5]
  remaining binding at 1 µM: 100%
[6]
  remaining binding at 1 µM: 100%
[7]
  remaining binding at 1 µM: 95%
[8]
  remaining binding at 1 µM: 89%
[9]
  remaining binding at 1 µM: 95%
[10]
  remaining binding at 1 µM: 100%
[11]
  remaining binding at 1 µM: 100%
[12]
  remaining binding at 1 µM: 99%
[13]
  remaining binding at 1 µM: 99%
[14]
  remaining binding at 1 µM: 88%
[15]
  remaining binding at 1 µM: 94%
[16]
  remaining binding at 1 µM: 99%
[17]
  remaining binding at 1 µM: 100%
[18]
  remaining binding at 1 µM: 100%
[19]
  remaining binding at 1 µM: 92%
[20]
  remaining binding at 1 µM: 75%
[21]
  remaining binding at 1 µM: 100%
[22]
  remaining binding at 1 µM: 74%
[23]
  remaining binding at 1 µM: 87%
[24]
  remaining binding at 1 µM: 100%
[25]
  remaining binding at 1 µM: 80%
[26]
  remaining binding at 1 µM: 100%
[27]
  remaining binding at 1 µM: 95%
[28]
  remaining binding at 1 µM: 93%
[29]
  remaining binding at 1 µM: 98%
[30]
  remaining binding at 1 µM: 99%
[31]
  remaining binding at 1 µM: 100%
[32]
  remaining binding at 1 µM: 75%
[33]
  remaining binding at 1 µM: 90%
[34]
  remaining binding at 1 µM: 96%
[35]
  remaining binding at 1 µM: 97%
[36]
  remaining binding at 1 µM: 100%
[37]
  remaining binding at 1 µM: 100%
[38]
  remaining binding at 1 µM: 100%
[39]
  remaining binding at 1 µM: 100%
[40]
  remaining binding at 1 µM: 98%
[41]
  remaining binding at 1 µM: 79%
[42]
  remaining binding at 1 µM: 100%
[43]
  remaining binding at 1 µM: 97%
[44]
  remaining binding at 1 µM: 70%

Source: paper PMC7407272, “Induction of Lysosome Membrane Permeabilization as a Therapeutic Strategy to Target Pancreatic Cancer Stem Cells” (Cancers, 2020)
